This experiment has as its system P. falciparum isolate 6218. The experiment is described as follows: 3-day SYBR Green I GIA, field isolate 6218. The class given is cell-based. The conditions noted are these: Plasmodium falciparum; artemisinin- and piperaquine-resistant isolate; read-out: Resistant isolates EC50, 6218. The method, then: A 3-day SYBR Green I inhibition EC50 assay was performed as described previously. Briefly, highly synchronized ring-stage parasites by 5% sorbitol (1% parasitemia and 2% hematocrit) were incubated in a 96-well plate with compounds in a total volume of 200 μL. […] The parasites were cultured for 72 h before SYBR Green I staining as described above. The EC50 was calculated by GraphPad Prism. DHA was used as a positive control, and the final concentration of DMSO was 1%.

By EC50 is commonly meant the concentration giving half of the maximal effect. For `Cl.Cn1cc(CN2CCC3(CCN(c4ncc(C(=O)NO)cn4)C3)C2)c2cc(C#N)ccc21` (stereo not shown) [JX21108], the EC50 turned out to be 2.2 ± 0.2 nM.

(Values after PMC7733455, “A novel multistage antiplasmodial inhibitor targeting Plasmodium falciparum histone deacetylase 1” (Cell Discovery, 2020).)
